Entries after “also recorded” stand apart in the source; their conditions may differ.
Assays:
adult tumor cell lines = conditions: a number of adult tumor cell lines; cited from earlier work
[1] = test system: established adult tumor lines s.c. implanted in nude mice; conditions: administered p.o.; cited from earlier work
[2] = BA metabolite identification by LC/MS/MS from murine plasma; type: in vivo, mouse; conditions: murine plasma after BA administration; equivalents measured using BSI-201 in the 1 μg/ml spike sample as reference standard
Method: (§1) Plasma samples were obtained from dog, rat and mouse studies, in which animals were administered 4-iodo-3-nitrobenzamide (BA). Plasma and tumor samples were prepared for HPLC injection by precipitating plasma (50 μl) with 3× volumes (150 μl) of acetonitrile. Tissue samples were prepared for HPLC injection by adding 1 μl of acetonitrile per mg of tissue, then homogenizing with an electric homogenizer. Following centrifugation, 150 μl of each supernatant was evaporated to dryness, reconstituted in 50 μl of 0.2% formic acid in water and analyzed by chromatography and mass spectrometry techniques (LC/MS/MS conditions). LC/MS/MS conditions are: HPLC (Shimadzu VP System); Mobile Phase: 0.2% formic acid in water (A) and 0.18% formic acid in methanol (B); Column: 1×50 mm Thermo BetaBasic C18 column; Injection volume: 25 μL; Gradient: 0-60% B in 30 minutes; Flow Rate: 100 μL/min; Mass Spectrometer: Applied Biosystems/MDS SCIEX Q-STAR; Interface: IonSpray split at 1/10; Parent Ion Scan: TOF Positive from 200-900 amu; Product Ion Scan: TOF Product Ion from 60-900 amu of most intense Ion in Parent Ion Scan; TOF calibration: Externally calibrated using Renin Substrate. Results of metabolite identification from dog and mouse plasma are depicted in Tables 1-3, as follows: […]

KB 3-1 cells = assay: Colony-forming assay, KB 3-1 cells; type: cell-based, human; conditions: KB 3-1 (MDR1 normal) cells, 0-100 μM, 14 days
Source text: (§2) KB-V1 is a vinblastine resistant clone of KB-3-1 human carcinoma cell line (Fojo, A. T., J Whang-Peng, M. M. Gottesman, and I. Pastan. 1985. Amplification of DNA sequences in human multidrugresistant KB carcinoma cells. Proc. Natl. Acad. Sci. USA 82:7661-7665., Shen, D.-W., C. Cardarelli, J lwang, M. Cornwell, N. Richert, S. Ishii, I. Pastan, and M. M. Gottesman. 1986. Multiple drug-resistant human KB carcinoma cells independently selected for high-level resistance to colchicine, Adriamycin, or vinblastine show changes in expression of specific proteins. J. Biol. Chem. 261:7762-7770). Cells were propagated in Eagle minimal essential medium with 10% fetal bovine serum.
(§3) Cells were trypsinized, counted, and diluted to a final concentration of 10^6 cells/ml. Colony-forming assays were performed by plating an appropriate number of cells into culture dishes in triplicates and treated with 0-100 μM of a compound. After 14 days, cells were fixed and stained with 1% crystal violet, and colonies were counted.

[3] = BA metabolite identification by LC/MS/MS from canine plasma; type: in vivo, dog; conditions: canine plasma after BA administration; equivalents measured using BSI-201 in the 1 μg/ml spike sample as reference standard
Method: as §1

HTC116 cells = assay: Cell-cycle analysis (DNA content, flow cytometry); type: cell-based; conditions: treated for 19 hours
Method: HCT116 and Hela cells were obtained from ATCC. For DNA content analysis, 2×10^5 cells were washed twice with PBS and fixed in 70% ethanol. Cells were treated with 100 units/mL RNase A for 20 minutes at 37° C., resuspended in cold PBS containing Alexa Fluor® 405 fluorescent stain (Invitrogen) according to the manufacturer's protocol. Cells were analyzed by flow cytometry. FIG. 1 illustrates (FACS dot plots and histograms) cell-cycle analysis in HTC116 cells treated with PARP-1 inhibitor (4-iodo-3-nitrobenzamide or “BA”) for 19 hours.

[4] = BA metabolite identification by LC/MS/MS from canine plasma and red blood cells; type: in vivo, dog; conditions: equivalents by 270 nm UV peak area of BSI-201 in the 5 μg/ml spike sample
Method: as §1

KB V-1 cells = assay: Colony-forming assay, KB V-1 cells (MDR1 overexpressing); type: cell-based, human; conditions: KB V-1 (MDR1 overexpressing, vinblastine resistant) cells, 0-100 μM, 14 days
Source text: as §2, §3

Approximate [2] [ng/mL] | Approximate [3] [ng/mL] | Approximate μg/ml Plasma ([4]; canine plasma) [µg/mL] | Approximate μg/ml RBC ([4]; canine red blood cells) [µg/mL] | Compound | IC50 of tumor cell growth inhibition (adult tumor cell lines) | growth of established adult tumor lines [1] | toxicities [1] | number of cell colonies / cell death (KB 3-1 cells) | S phase cell cycle (HTC116 cells; compared to control) | number of cells in the G1 phase (HTC116 cells; control 18.6%) [%] | number of cell colonies / cell death (KB V-1 cells)
– | – | – | – | Nc1ccccc1NC(=O)c1ccc(CNC(=O)OCc2cccnc2)cc1 [MS-27-275] | submicromolar range | inhibited the growth | minimal toxicities | – | – | – | –
~3.7 | ~1.9 | ~2.1 | ~1.6 | NC(=O)c1ccc(I)c([N+](=O)[O-])c1 [BA, 4-iodo-3-nitrobenzamide] | – | – | – | dose-dependent cell death; also recorded: reduces the number of cell colonies in a dose-dependant manner | decrease | 48.6 | dose-dependent cell death; also recorded: reduces the number of cell colonies in a dose-dependant manner
~56 | ~12 | – | – | NC(=O)c1ccc(I)c(O)c1 [M4 (263 m/z)] | – | – | – | – | – | – | –
